Measured values published in ChEMBL document CHEMBL3399986, “Rapid 'one-pot' synthesis of a novel benzimidazole-5-carboxylate and its hydrazone derivatives as potential anti-inflammatory and antimicrobial agents” (Bioorg Med Chem Lett, 2015).
In brackets after ≈: the same amount, converted by molar mass.

Key:
Assay type in all cases: functional
[1] = test system: Rattus norvegicus; test: Antiinflammatory activity in rat assessed as inhibition of carrageenan-induced paw edema administered 30 mins prior to carrageenan challenge measured after 1 hr relative to control
[2] = test system: Rattus norvegicus; test: Antiinflammatory activity in rat assessed as inhibition of carrageenan-induced paw edema administered 30 mins prior to carrageenan challenge measured after 2 hrs relative to control
[3] = test system: Rattus norvegicus; test: Antiinflammatory activity in rat assessed as inhibition of carrageenan-induced paw edema administered 30 mins prior to carrageenan challenge measured after 3 hrs relative to control
[4] = test system: Staphylococcus aureus; test: Antimicrobial activity against Staphylococcus aureus MTCC 3160 after 24 hrs by broth dilution method; details: MTCC 3160, 24 h
[5] = test system: Bacillus subtilis; test: Antimicrobial activity against Bacillus subtilis MTCC 441 after 24 hrs by broth dilution method; details: MTCC 441, 24 h
[6] = test system: Escherichia coli; test: Antimicrobial activity against Escherichia coli MTCC 4351 after 24 hrs by broth dilution method; details: MTCC 4351, 24 h
[7] = test system: Klebsiella pneumoniae; test: Antimicrobial activity against Klebsiella pneumoniae MTCC 3384 after 24 hrs by broth dilution method; details: MTCC 3384, 24 h
[8] = test system: Staphylococcus aureus; test: Antimicrobial activity against Staphylococcus aureus MTCC 3160 assessed as zone of inhibition at 5 mg/ml after 24 hrs by agar well diffusion method; details: MTCC 3160, 24 h, read-out: IZ
[9] = test system: Bacillus subtilis; test: Antimicrobial activity against Bacillus subtilis MTCC 441 assessed as zone of inhibition at 5 mg/ml after 24 hrs by agar well diffusion method; details: MTCC 441, 24 h, read-out: IZ
[10] = test system: Escherichia coli; test: Antimicrobial activity against Escherichia coli MTCC 4351 assessed as zone of inhibition at 5 mg/ml after 24 hrs by agar well diffusion method; details: MTCC 4351, 24 h, read-out: IZ
[11] = test system: Klebsiella pneumoniae; test: Antimicrobial activity against Klebsiella pneumoniae MTCC 3384 assessed as zone of inhibition at 5 mg/ml after 24 hrs by agar well diffusion method; details: MTCC 3384, 24 h, read-out: IZ
[12] = test system: Aspergillus niger; test: Antifungal activity against Aspergillus niger MTCC 282 after 48 hrs by broth dilution method; details: MTCC 282, 48 h
[13] = test system: Candida tropicalis; test: Antifungal activity against Candida tropicalis MTCC 183 after 48 hrs by broth dilution method; details: MTCC 183, 48 h
[14] = test system: Candida albicans; test: Antifungal activity against Candida albicans MTCC 461 after 48 hrs by broth dilution method; details: MTCC 461, 48 h
[15] = test system: Penicillium chrysogenum; test: Antifungal activity against Penicillium notatum after 48 hrs by broth dilution method
[16] = test system: Aspergillus niger; test: Antifungal activity against Aspergillus niger MTCC 282 assessed as zone of inhibition at 5 mg/ml after 24 hrs by agar well diffusion method; details: MTCC 282, 24 h, read-out: IZ
[17] = test system: Candida tropicalis; test: Antifungal activity against Candida tropicalis MTCC 183 assessed as zone of inhibition at 5 mg/ml after 24 hrs by agar well diffusion method; details: MTCC 183, 24 h, read-out: IZ
[18] = test system: Candida albicans; test: Antifungal activity against Candida albicans MTCC 461 assessed as zone of inhibition at 5 mg/ml after 24 hrs by agar well diffusion method; details: MTCC 461, 24 h, read-out: IZ
[19] = test system: Penicillium chrysogenum; test: Antifungal activity against Penicillium notatum assessed as zone of inhibition at 5 mg/ml after 24 hrs by agar well diffusion method; details: read-out: IZ

| SMILES | inhibition (INH) [1] [%] | inhibition (INH) [2] [%] | inhibition (INH) [3] [%] | MIC [4] [µg/mL] | MIC [5] [µg/mL] | MIC [6] [µg/mL] | MIC [7] [µg/mL] | zone of inhibition at 5000 µg/mL [8] [mm] | zone of inhibition at 5000 µg/mL [9] [mm] | zone of inhibition at 5000 µg/mL [10] [mm] | zone of inhibition at 5000 µg/mL [11] [mm] | MIC [12] [µg/mL] | MIC [13] [µg/mL] | MIC [14] [µg/mL] | MIC [15] [µg/mL] | zone of inhibition at 5000 µg/mL [16] [mm] | zone of inhibition at 5000 µg/mL [17] [mm] | zone of inhibition at 5000 µg/mL [18] [mm] | zone of inhibition at 5000 µg/mL [19] [mm] |
| --- | --- | --- | --- | --- | --- | --- | --- | --- | --- | --- | --- | --- | --- | --- | --- | --- | --- | --- | --- |
| CCCn1c(-c2ccc(Cl)cc2Cl)nc2cc(C(=O)N/N=C/c3cccc(Cl)c3Cl)ccc21 | 53.14 | 49.65 | 45.1 | 12.5 (≈ 24 µM) | 25 (≈ 48.1 µM) | 12.5 (≈ 24 µM) | 12.5 (≈ 24 µM) | 17 | 15 | 18 | 18 | 6.25 (≈ 12 µM) | 25 (≈ 48.1 µM) | 12.5 (≈ 24 µM) | 50 (≈ 96.1 µM) | 20 | 16 | 16 | 12 |
| CCCn1c(-c2ccc(Cl)cc2Cl)nc2cc(C(=O)N/N=C/c3ccc(Cl)cc3Cl)ccc21 | 51.29 | 63.63 | 38.39 | 25 (≈ 48.1 µM) | 25 (≈ 48.1 µM) | 50 (≈ 96.1 µM) | 50 (≈ 96.1 µM) | 15 | 15 | 12 | 15 | 25 (≈ 48.1 µM) | 12.5 (≈ 24 µM) | 25 (≈ 48.1 µM) | 50 (≈ 96.1 µM) | 18 | 16 | 15 | 12 |
| CCCn1c(-c2ccc(Cl)cc2Cl)nc2cc(C(=O)N/N=C/c3cc(C)c(O)c(C)c3)ccc21 | 51.11 | 50.48 | 43.06 | 12.5 (≈ 25.2 µM) | 12.5 (≈ 25.2 µM) | 6.25 (≈ 12.6 µM) | 25 (≈ 50.5 µM) | 17 | 17 | 20 | 17 | 6.25 (≈ 12.6 µM) | 12.5 (≈ 25.2 µM) | 50 (≈ 101 µM) | 25 (≈ 50.5 µM) | 20 | 16 | 14 | 15 |
| CCCn1c(-c2ccc(Cl)cc2Cl)nc2cc(C(=O)N/N=C/c3ccccc3)ccc21 | 56.85 | 54.12 | 47.15 | 50 (≈ 111 µM) | 25 (≈ 55.4 µM) | 12.5 (≈ 27.7 µM) | 50 (≈ 111 µM) | 12 | 15 | 18 | 12 | 25 (≈ 55.4 µM) | 50 (≈ 111 µM) | 50 (≈ 111 µM) | 25 (≈ 55.4 µM) | 19 | 12 | 12 | 16 |
| CC1(C)S[C@@H]2[C@H](NC(=O)[C@H](N)c3ccccc3)C(=O)N2[C@H]1C(=O)O [AMPICILLIN] | – | – | – | 1.56 (≈ 4.46 µM) | 1.56 (≈ 4.46 µM) | 1.56 (≈ 4.46 µM) | 3.12 (≈ 8.93 µM) | 26 | 24 | 25 | 23 | – | – | – | – | – | – | – | – |
| O=C([O-])Cc1ccccc1Nc1c(Cl)cccc1Cl.[Na+] [DICLOFENAC SODIUM] | 62.96 | 73.28 | 74.74 | – | – | – | – | – | – | – | – | – | – | – | – | – | – | – | – |
| OC(Cn1cncn1)(Cn1cncn1)c1ccc(F)cc1F [FLUCONAZOLE] | – | – | – | – | – | – | – | – | – | – | – | 1.56 (≈ 5.09 µM) | 1.56 (≈ 5.09 µM) | 1.56 (≈ 5.09 µM) | 3.12 (≈ 10.2 µM) | 24 | 24 | 23 | 22 |
| COc1ccc2c(c1)c(CC(=O)O)c(C)n2C(=O)c1ccc(Cl)cc1 [INDOMETHACIN] | 55.55 | 68.11 | 69.34 | – | – | – | – | – | – | – | – | – | – | – | – | – | – | – | – |
